Tests used:
AmpC = assay: β-lactamase inhibition assay (nitrocefin); assay type: biochemical; conditions: nitrocefin substrate; read-out: BLi, IC50 AmpC
Description: (§1) Recombinant AmpC, OXA-48 (residues 23–265) and VIM-2 (residues 27–266) were prepared from Escherichia coli based on previously established protocols. KPC-2 and NDM-1 are commercially available from LifeSpan Biosciences, Inc., Seattle, WA, USA (LS-G26598) and RayBiotech, Inc., Peachtree Corners, GA, USA (230-00554), respectively. For β-lactamase inhibition assay, in a 96-well plate, 70–0.1 μM (in PBS) of the synthesized compounds (1~14) (100 μL) were mixed with diluted β-lactamase stock (2% DMSO in 200 μL). In a separate 96-well plate, a substrate of AmpC, KPC-2, OXA-48, and VIM-2 (nitrocefin) and NDM-1 (imipenem) were added into each well (final concentrations of 70 μM for nitrocefin and 100 μM for imipenem). After incubation at 37 °C for 20 min, the mixture of the synthesized compounds (1~14) and β-lactamase in one plate was added to the substrate in the other plate. Enzymatic hydrolysis of the substrate was then monitored by a Cytation 5 imaging multimode reader (BioTek Instruments Inc., Winooski, VT, USA) at 486 nm and 300 nm for nitrocefin and imipenem, respectively, for 15 min. The rates of hydrolysis in the presence of the inhibitors were determined when the reaction rate plateaued. Comparison of the enzymatic hydrolysis rates in the presence and the absence of inhibitors (100%) provided the percentage of enzyme inhibition at each concentration of the synthesized compounds. The IC50 values were obtained after non-linear regression (sigmoidal dose-responses) by GraphPad Prism 5 (GraphPad Software, Boston, MA, USA).

[1] = system: NDM-1-Producing P. aeruginosa (PA-017, blaNDM); assay: MIC / checkerboard with ATM; assay type: cell-based; conditions: PA-017; for MIC: Pseudomonas aeruginosa, compound alone, read-out: MIC, Cmpd
[2] = system: efflux pump activity in P. aeruginosa (PA-017, blaNDM); assay: EtBr accumulation, inhibition of efflux pump activity; assay type: cell-based; conditions: EtBr fluorescence compared with positive control CCCP
Description: The NDM-producing P. aeruginosa clinical isolate (PA-017, blaNDM) (5 mL, LB medium) was grown to reach the mid-log phase. After centrifugation at 3500 rpm for 15 min, the bacterial pellet was washed twice with PBS and resuspended to OD600 = 0.3 in PBS. To each well of a flat-bottomed black 96-well plate, 182 µL of the bacterial suspension, 4 µL of glucose [final concentration = 0.4% (w/v)], 4 µL of the synthesized compounds or positive control CCCP, and 10 µL of EtBr (final concentration = 1 µg/mL) were added. The plate was incubated at 37 °C, and fluorescence emission from EtBr (λex 480 nm/λem 630 nm) was recorded every 2 min (for 60 min) using a Cytation 5 imaging multi-mode reader (BioTek Instruments, Inc., Winooski, VT, USA).

VIM-2 = molecular target: T1, VIM-2 (Escherichia coli, UniProt Q5U7L7); assay: β-lactamase inhibition assay (nitrocefin); assay type: biochemical; conditions: nitrocefin substrate; read-out: BLi, IC50 VIM-2
T1 construct: VIM-2 (residues 27–266); made in house; host or cells: Escherichia coli
Description: as §1

KPC-2 = molecular target: T2, KPC-2 (Klebsiella pneumoniae, UniProt Q9F663); assay: β-lactamase inhibition assay (nitrocefin); assay type: biochemical; conditions: nitrocefin substrate; read-out: BLi, IC50 KPC-2
T2 construct: purchased LifeSpan Biosciences, Inc. LS-G26598
Description: as §1

OXA-48 = molecular target: T3, OXA-48 (Klebsiella pneumoniae, UniProt Q6XEC0); assay: β-lactamase inhibition assay (nitrocefin); assay type: biochemical; conditions: nitrocefin substrate; read-out: BLi, IC50 OXA-48
T3 construct: OXA-48 (residues 23–265); made in house; host or cells: Escherichia coli
Description: as §1

NDM-1 = molecular target: T4, NDM-1 (Klebsiella pneumoniae, UniProt C7C422); assay: β-lactamase inhibition assay (imipenem); assay type: biochemical; conditions: imipenem substrate; read-out: BLi, IC50 NDM-1
T4 construct: purchased RayBiotech, Inc. 230-00554
Description: as §1

T4 sequence (C7C422 29-270, looked up, species assumed): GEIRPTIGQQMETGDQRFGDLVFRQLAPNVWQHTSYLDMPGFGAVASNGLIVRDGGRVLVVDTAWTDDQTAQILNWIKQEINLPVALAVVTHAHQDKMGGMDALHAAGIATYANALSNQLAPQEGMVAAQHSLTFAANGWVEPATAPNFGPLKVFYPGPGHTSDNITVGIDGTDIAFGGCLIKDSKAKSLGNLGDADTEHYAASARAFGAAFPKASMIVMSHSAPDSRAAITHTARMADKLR
T3 sequence (Q6XEC0 23-265 limits assumed): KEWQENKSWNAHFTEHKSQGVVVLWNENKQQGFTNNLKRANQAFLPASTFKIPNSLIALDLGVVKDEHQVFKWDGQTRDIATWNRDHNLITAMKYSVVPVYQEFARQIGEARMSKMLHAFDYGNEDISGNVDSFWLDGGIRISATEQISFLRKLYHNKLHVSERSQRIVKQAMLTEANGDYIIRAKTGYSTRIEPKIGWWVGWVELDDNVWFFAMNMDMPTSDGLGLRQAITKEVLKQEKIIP
T2 sequence (Q9F663 25-293, looked up, species assumed): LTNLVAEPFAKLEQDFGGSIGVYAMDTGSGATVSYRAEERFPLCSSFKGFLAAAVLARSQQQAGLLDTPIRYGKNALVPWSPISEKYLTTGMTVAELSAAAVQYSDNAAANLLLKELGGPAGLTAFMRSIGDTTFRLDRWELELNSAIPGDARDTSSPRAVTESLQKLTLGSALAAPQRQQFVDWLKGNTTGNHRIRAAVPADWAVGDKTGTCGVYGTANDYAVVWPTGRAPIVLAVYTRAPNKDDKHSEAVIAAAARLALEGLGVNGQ

Row | SMILES | IC50 (AmpC) [µM] | FD (fold decrease in the MIC of ATM upon combination with the compound) [1] | MIC [1] [µg/mL] | EPi (inhibition of efflux pump activity) [2] | IC50 (VIM-2) [µM] | IC50 (KPC-2) [µM] | IC50 (OXA-48) [µM] | IC50 (NDM-1) [µM]
1 | O=c1c(OCCC2CCCC2)c(-c2ccc(F)c(F)c2)oc2cc(O)cc(O)c12 [Compound 2] | 21 ± 2.1 | 2 | > 256 | ↑↑↑ ^e | – | – | – | –
2 | O=c1c(OCCC2CCCCC2)c(-c2ccc(F)c(F)c2)oc2cc(O)cc(O)c12 [Compound 3] | 15.3 ± 1.5 | 4 | > 256 | ↑↑↑ ^e | – | – | – | –
3 | O=C(O)CC(Oc1cc(O)c2c(=O)c(OCCC3CCCCC3)c(-c3ccc(F)c(F)c3)oc2c1)C(=O)O (stereo not shown) [Compound 4, 2-((3-(2-Cyclohexylethoxy)-2-(3,4-difluorophenyl)-5-hydroxy-4-oxo-4H-chromen-7-yl)oxy)succinic Acid] | > 50 | 1 | > 256 | - ^f | > 100 | > 50 | > 100 | > 50

Source: paper PMC11672637, “7-O-Carboxylic Acid-Substituted 3-O-Alkyl Difluoroquercetin; An Aztreonam-Potentiating Agent Against Carbapenemase-Producing Pseudomonas aeruginosa Through Simultaneous Inhibition of Metallo-β-Lactamase and Efflux Pump” (Antibiotics, 2024)
